Reference: ChEMBL document CHEMBL5034015, “Structure-Based Optimization of 3-Phenyl-N-(2-(3-phenylureido)ethyl)thiophene-2-sulfonamide Derivatives as Selective Mcl-1 Inhibitors” (J Med Chem, 2021)
pIC50, pKi: −log10 of the molar value. Active and inactive are the calls of the source. No rule for the calls is given here.

Tests used:
[1] = target: T1, Induced myeloid leukemia cell differentiation protein Mcl-1 (Homo sapiens, UniProt Q07820); assay: Binding affinity to full length human MCL1 expressed in Escherichia coli BL21 (DE3) assessed as inhibition constant preincubated for 30 mins followed by 5-FAM-QEDIIIINIARHLAQVGDSMD-RSIPPG tracer addition and measured after 20 mins by fluorescence polarization assay
T1 sequence (Q07820 whole entry): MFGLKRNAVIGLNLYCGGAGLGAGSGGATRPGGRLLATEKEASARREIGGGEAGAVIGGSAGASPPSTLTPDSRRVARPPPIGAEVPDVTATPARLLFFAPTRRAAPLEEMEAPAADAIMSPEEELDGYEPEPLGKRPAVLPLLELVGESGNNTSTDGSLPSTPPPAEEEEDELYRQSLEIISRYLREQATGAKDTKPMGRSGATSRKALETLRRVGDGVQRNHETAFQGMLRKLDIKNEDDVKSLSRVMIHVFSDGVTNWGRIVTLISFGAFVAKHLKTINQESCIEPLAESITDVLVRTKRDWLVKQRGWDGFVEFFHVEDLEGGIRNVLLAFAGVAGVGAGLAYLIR

HEK-293T = assay: Cytotoxicity against HEK293T cells assessed as reduction in cell viability incubated for 48 hrs by CCK8 assay; conditions: Homo sapiens
HeLa = assay: cells; conditions: Homo sapiens, 48 h
Description: Cytotoxicity against human HeLa cells assessed as inhibition of cell growth incubated for 48 hrs by CCK8 assay

[2] = target: T2, Apoptosis regulator Bcl-2 (Homo sapiens, UniProt P10415); assay: Binding affinity to full length human Bcl-2 expressed in Escherichia coli BL21 (DE3) at up to 100 uM preincubated for 30 mins followed by 5-FAM-QEDIIIINIARHLAQVGDSMD-RSIPPG tracer addition and measured after 20 mins by fluorescence polarization assay; conditions: dose microM <=100, time 50.0 min
T2 sequence (P10415 whole entry): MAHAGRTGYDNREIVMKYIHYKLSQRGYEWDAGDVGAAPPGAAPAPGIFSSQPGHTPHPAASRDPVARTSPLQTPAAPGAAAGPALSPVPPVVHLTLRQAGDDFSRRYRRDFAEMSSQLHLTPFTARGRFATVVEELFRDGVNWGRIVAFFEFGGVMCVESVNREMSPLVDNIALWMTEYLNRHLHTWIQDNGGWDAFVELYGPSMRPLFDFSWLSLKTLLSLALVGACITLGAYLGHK

Bcl-2-like protein 1 [3] = target: T3, Bcl-2-like protein 1 (Homo sapiens, UniProt Q07817); assay: Binding affinity to full length human Bcl-xl expressed in Escherichia coli BL21 (DE3) at up to 100 uM preincubated for 30 mins followed by 5-FAM-QEDIIIINIARHLAQVGDSMD-RSIPPG tracer addition and measured after 20 mins by fluorescence polarization assay; conditions: dose microM <=100, time 50.0 min
T3 sequence (Q07817 whole entry): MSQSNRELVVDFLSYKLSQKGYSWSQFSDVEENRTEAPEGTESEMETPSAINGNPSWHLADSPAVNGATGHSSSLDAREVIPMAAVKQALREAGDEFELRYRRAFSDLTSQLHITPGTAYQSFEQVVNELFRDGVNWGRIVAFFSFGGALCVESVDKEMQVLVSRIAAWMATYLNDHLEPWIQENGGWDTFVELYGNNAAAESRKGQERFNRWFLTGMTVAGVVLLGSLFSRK

RS4-11 = assay: cells; conditions: Homo sapiens, RS4-11, 48 h
Description: Cytotoxicity against human RS4-11 cells assessed as inhibition of cell growth incubated for 48 hrs by CCK8 assay

HL-60 = assay: cells; conditions: Homo sapiens, HL-60, 48 h
Description: Cytotoxicity against human HL-60 cells assessed as inhibition of cell growth incubated for 48 hrs by CCK8 assay

[4] = target: T2, Apoptosis regulator Bcl-2; assay: Binding affinity to full length human Bcl-2 expressed in Escherichia coli BL21 (DE3) at 100 uM preincubated for 30 mins followed by 5-FAM-QEDIIIINIARHLAQVGDSMD-RSIPPG tracer addition and measured after 20 mins by fluorescence polarization assay relative to control; conditions: time 50.0 min
Bcl-2-like protein 1 [5] = target: T3, Bcl-2-like protein 1; assay: Binding affinity to full length human Bcl-xl expressed in Escherichia coli BL21 (DE3) at 100 uM preincubated for 30 mins followed by 5-FAM-QEDIIIINIARHLAQVGDSMD-RSIPPG tracer addition and measured after 20 mins by fluorescence polarization assay relative to control; conditions: time 50.0 min
[6] = target: T1, Induced myeloid leukemia cell differentiation protein Mcl-1; assay: Binding affinity to full length human MCL1 expressed in Escherichia coli BL21 (DE3) at 100 uM preincubated for 30 mins followed by 5-FAM-QEDIIIINIARHLAQVGDSMD-RSIPPG tracer addition and measured after 20 mins by fluorescence polarization assay relative to control; conditions: time 50.0 min

Question: With `Cc1cc(C)cc(NC(=O)NCCNS(=O)(=O)c2ccc(-c3ccccc3Oc3ccc(N)cc3)s2)c1` as the molecule, how does the pKi [1] read?
Answer: 5.80

Question: What about the pIC50 (HEK-293T) of the same molecule?
Answer: < 4.70

Question: What about the pIC50 (HeLa) of the same molecule?
Answer: < 4.70

Question: And the Activity [2]?
Answer: inactive

Question: What about the Activity (Bcl-2-like protein 1 [3]) of the same molecule?
Answer: inactive

Question: And the pIC50 (RS4-11)?
Answer: < 4.70

Question: And the pIC50 (HL-60)?
Answer: < 4.30

Question: With `COc1cccc(NC(=S)NCCNS(=O)(=O)c2ccc(-c3ccccc3Oc3ccc([N+](=O)[O-])cc3)s2)c1` as the molecule, how does the pKi [1] read?
Answer: 4.89

Question: What about the pIC50 (HEK-293T) of the same molecule?
Answer: < 4.70

Question: What about the pIC50 (HeLa) of the same molecule?
Answer: < 4.30

Question: And the Activity [2]?
Answer: inactive

Question: And the Activity (Bcl-2-like protein 1 [3])?
Answer: inactive

Question: And the pIC50 (RS4-11)?
Answer: < 4.30

Question: And the pIC50 (HL-60)?
Answer: < 4.30

Question: `COc1cccc(NC(=O)NCCNS(=O)(=O)c2ccc(-c3ccccc3OCc3ccccc3)s2)c1` was tested. Which pKi [1] did it give?
Answer: 4.96

Question: And the pIC50 (HEK-293T)?
Answer: < 4.70

Question: And the pIC50 (HeLa)?
Answer: < 4.30

Question: And the Activity [2]?
Answer: inactive

Question: And the Activity (Bcl-2-like protein 1 [3])?
Answer: inactive

Question: What about the pIC50 (RS4-11) of the same molecule?
Answer: < 4.70

Question: What about the pIC50 (HL-60) of the same molecule?
Answer: 5.77

Question: `COc1ccc(Oc2ccccc2-c2ccsc2S(=O)(=O)N2CCN(C(=O)Nc3ccc([N+](=O)[O-])cc3)CC2)cc1OC` was tested. Which pIC50 (HEK-293T) did it give?
Answer: < 4.70

Question: What about the inhibition [4] of the same molecule?
Answer: 17%

Question: What about the inhibition (Bcl-2-like protein 1 [5]) of the same molecule?
Answer: 20%

Question: And the pIC50 (HeLa)?
Answer: < 4.30

Question: And the inhibition [6]?
Answer: 22%

Question: And the pIC50 (RS4-11)?
Answer: < 4.30

Question: What about the pIC50 (HL-60) of the same molecule?
Answer: < 4.30

Question: Which results are given for `COc1ccc(Oc2ccccc2-c2ccsc2S(=O)(=O)N2CCN(C(=O)Nc3cc(C(F)(F)F)cc(C(F)(F)F)c3)CC2)cc1OC`?
Answer: pIC50 (HEK-293T): < 4.70; inhibition [4]: 23%; inhibition (Bcl-2-like protein 1 [5]): 24%; pIC50 (HeLa): < 4.30; inhibition [6]: 44%; pIC50 (RS4-11): < 4.30; pIC50 (HL-60): < 4.70

Question: How did the pKi [1] turn out when `O=S(=O)(NCCNC(=S)Nc1ccc(Cl)cc1)c1ccc(-c2ccccc2OCc2ccccc2)s1` was run?
Answer: 5.37

Question: What about the pIC50 (HEK-293T) of the same molecule?
Answer: 4.92

Question: And the pIC50 (HeLa)?
Answer: 5.15

Question: What about the Activity [2] of the same molecule?
Answer: inactive

Question: What about the Activity (Bcl-2-like protein 1 [3]) of the same molecule?
Answer: inactive

Question: And the pIC50 (RS4-11)?
Answer: < 4.30

Question: What about the pIC50 (HL-60) of the same molecule?
Answer: < 4.30

Question: Which results are given for `COc1ccc(Oc2ccc([N+](=O)[O-])cc2-c2ccsc2S(=O)(=O)N2CCN(C(=S)Nc3ccc([N+](=O)[O-])cc3)CC2)cc1OC`?
Answer: pIC50 (HEK-293T): < 4.30; inhibition [4]: 16%; inhibition (Bcl-2-like protein 1 [5]): 27%; pIC50 (HeLa): < 4.30; inhibition [6]: 26%; pIC50 (RS4-11): < 4.30; pIC50 (HL-60): < 4.30

Question: What does the source list for `COc1ccc(Oc2ccc(C(C)C)cc2-c2ccsc2S(=O)(=O)NCCNC(=S)Nc2cc(C(F)(F)F)cc(C(F)(F)F)c2)cc1OC`?
Answer: pKi [1]: 4.92; pIC50 (HEK-293T): 4.99; pIC50 (HeLa): 5.08; Activity [2]: inactive; Activity (Bcl-2-like protein 1 [3]): inactive; pIC50 (RS4-11): 5.26; pIC50 (HL-60): 5.16

Question: What does the source list for `COc1cccc(NC(=S)NCCNS(=O)(=O)c2sccc2-c2ccc(C)cc2Oc2ccc(O)c(O)c2)c1`?
Answer: pKi [1]: 5.22; pIC50 (HEK-293T): < 4.30; pIC50 (HeLa): < 4.30; Activity [2]: inactive; Activity (Bcl-2-like protein 1 [3]): inactive; pIC50 (RS4-11): < 4.70; pIC50 (HL-60): < 4.30

Question: How did the pKi [1] turn out when `Cc1ccc(-c2ccsc2S(=O)(=O)NCCNC(=S)Nc2ccc([N+](=O)[O-])cc2)c(Oc2ccc(O)c(O)c2)c1` was run?
Answer: 5.82

Question: And the pIC50 (HEK-293T)?
Answer: 5.09

Question: And the pIC50 (HeLa)?
Answer: 5.17

Question: What about the Activity [2] of the same molecule?
Answer: inactive

Question: What about the Activity (Bcl-2-like protein 1 [3]) of the same molecule?
Answer: inactive

Question: And the pIC50 (RS4-11)?
Answer: 5.29

Question: What about the pIC50 (HL-60) of the same molecule?
Answer: 5.54

Question: How did the pIC50 (HEK-293T) turn out when `O=C(Nc1ccc([N+](=O)[O-])cc1)N1CCN(S(=O)(=O)c2sccc2-c2ccccc2Oc2ccc(O)c(O)c2)CC1` was run?
Answer: < 4.70

Question: And the inhibition [4]?
Answer: 33%

Question: And the inhibition (Bcl-2-like protein 1 [5])?
Answer: 29%

Question: What about the pIC50 (HeLa) of the same molecule?
Answer: < 4.70

Question: And the inhibition [6]?
Answer: 63%

Question: And the pIC50 (RS4-11)?
Answer: 4.84

Question: And the pIC50 (HL-60)?
Answer: 5.31

Question: `O=C(Nc1ccc(F)cc1)N1CCN(S(=O)(=O)c2sccc2-c2ccccc2Oc2ccc(O)c(O)c2)CC1` was tested. Which pIC50 (HEK-293T) did it give?
Answer: 4.81

Question: And the inhibition [4]?
Answer: 33%

Question: What about the inhibition (Bcl-2-like protein 1 [5]) of the same molecule?
Answer: 32%

Question: And the pIC50 (HeLa)?
Answer: 4.83

Question: And the inhibition [6]?
Answer: 95%

Question: What about the pIC50 (RS4-11) of the same molecule?
Answer: 5.17

Question: And the pIC50 (HL-60)?
Answer: 5.09

Question: How did the pKi [1] turn out when `O=C(NCCNS(=O)(=O)c1ccc(-c2ccccc2Oc2ccc([N+](=O)[O-])c([N+](=O)[O-])c2)s1)Nc1ccc(Cl)cc1` was run?
Answer: 5.23

Question: And the pIC50 (HEK-293T)?
Answer: < 4.70

Question: What about the pIC50 (HeLa) of the same molecule?
Answer: < 4.70

Question: And the Activity [2]?
Answer: inactive

Question: What about the Activity (Bcl-2-like protein 1 [3]) of the same molecule?
Answer: inactive

Question: And the pIC50 (RS4-11)?
Answer: 5.17

Question: And the pIC50 (HL-60)?
Answer: 5.09

Question: Which results are given for `O=S(=O)(c1sccc1-c1ccccc1Oc1ccc(O)c(O)c1)N1CCN(C(=S)Nc2ccc(Cl)cc2)CC1`?
Answer: pIC50 (HEK-293T): < 4.30; inhibition [4]: 2%; inhibition (Bcl-2-like protein 1 [5]): 3%; pIC50 (HeLa): < 4.30; inhibition [6]: 20%; pIC50 (RS4-11): 5.12; pIC50 (HL-60): 5.26
